# Test results from ChEMBL document CHEMBL1201862, “PubChem BioAssay data set” (2004).
#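 Exposure lasted 48 hours, with cells grown in 96-well plates and compounds tested at five concentrations. The concentration for 50% growth inhibition is given as GI50.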 Active and inactive are the calls of the source. Cut-off read from the data, not from the text of the source: active = GI50 up to about 1.1 µM and inactive = higher.
# Columns and labels:
# Experiment in all cases: NCI anticancer screen, dose series, 48 h
# 786-0 = test system: 786-0
# A549 = test system: A549
# ACHN = test system: ACHN
# CAKI-1 = test system: CAKI-1
# CCRF-CEM = test system: CCRF-CEM
# COLO 205 = test system: COLO 205
# DLD-1 = test system: DLD-1
# DMS-114 = test system: DMS-114
# DMS-273 = test system: DMS-273
# EKVX = test system: EKVX
# HCC 2998 = test system: HCC 2998
# HCT-15 = test system: HCT-15
# HL-60 = test system: HL-60
# HOP-62 = test system: HOP-62
# HOP-92 = test system: HOP-92
# HT-29 = test system: HT-29
# IGROV-1 = test system: IGROV-1
# K562 = test system: K562
# KM-20L2 = test system: KM-20L2
# KM12 = test system: KM12
# LOX IMVI = test system: LOX IMVI
# LXFL 529 = test system: LXFL 529
# M14 = test system: M14
# M19-MEL = test system: M19-MEL
# MOLT-4 = test system: MOLT-4
# Malme-3M = test system: Malme-3M
# NCI-H23 = test system: NCI-H23
# NCI-H460 = test system: NCI-H460
# NCI-H522 = test system: NCI-H522
# OVCAR-3 = test system: OVCAR-3
# OVCAR-4 = test system: OVCAR-4
# OVCAR-5 = test system: OVCAR-5
# OVCAR-8 = test system: OVCAR-8
# RPMI-8226 = test system: RPMI-8226
# RXF 393 = test system: RXF 393
# SF-295 = test system: SF-295
# SK-MEL-28 = test system: SK-MEL-28
# SK-MEL-2 = test system: SK-MEL-2
# SK-MEL-5 = test system: SK-MEL-5
# SK-OV-3 = test system: SK-OV-3
# SN12C = test system: SN12C
# SNB-19 = test system: SNB-19
# SNB-75 = test system: SNB-75
# SNB-78 = test system: SNB-78
# SW-620 = test system: SW-620
# TK-10 = test system: TK-10
# UACC-257 = test system: UACC-257
# UACC-62 = test system: UACC-62
# UO-31 = test system: UO-31
# A498 = test system: A498
# HCT-116 = test system: HCT-116
# HOP-18 = test system: HOP-18
# NCI-H226 = test system: NCI-H226
# SF-268 = test system: SF-268
# SF-539 = test system: SF-539
# SR = test system: SR
# U-251 = test system: U-251
compound,measurement,setting,value
C#CCC(O)c1ccccc1C(O)CC#C (configuration not stated),GI50,786-0,> 100 µM (inactive)
same,GI50,A549,> 100 µM (inactive)
same,GI50,ACHN,75.5 µM (inactive)
same,GI50,CAKI-1,65.2 µM (inactive)
same,GI50,CCRF-CEM,> 100 µM (inactive)
same,GI50,COLO 205,> 100 µM (inactive)
same,GI50,DLD-1,> 100 µM (inactive)
same,GI50,DMS-114,> 100 µM (inactive)
same,GI50,DMS-273,> 100 µM (inactive)
same,GI50,EKVX,> 100 µM (inactive)
same,GI50,HCC 2998,89.3 µM (inactive)
same,GI50,HCT-15,> 100 µM
same,GI50,HL-60,> 100 µM (inactive)
same,GI50,HOP-62,> 100 µM (inactive)
same,GI50,HOP-92,30.8 µM (inactive)
same,GI50,HT-29,> 100 µM (inactive)
same,GI50,IGROV-1,> 100 µM (inactive)
same,GI50,K562,> 100 µM (inactive)
same,GI50,KM-20L2,> 100 µM (inactive)
same,GI50,KM12,> 100 µM (inactive)
same,GI50,LOX IMVI,> 100 µM (inactive)
same,GI50,LXFL 529,> 100 µM (inactive)
same,GI50,M14,> 100 µM (inactive)
same,GI50,M19-MEL,> 100 µM (inactive)
same,GI50,MOLT-4,> 100 µM (inactive)
same,GI50,Malme-3M,79.4 µM (inactive)
same,GI50,NCI-H23,> 100 µM (inactive)
same,GI50,NCI-H460,> 100 µM (inactive)
same,GI50,NCI-H522,70.1 µM (inactive)
same,GI50,OVCAR-3,> 100 µM (inactive)
same,GI50,OVCAR-4,> 100 µM (inactive)
same,GI50,OVCAR-5,> 100 µM (inactive)
same,GI50,OVCAR-8,> 100 µM (inactive)
same,GI50,RPMI-8226,> 100 µM (inactive)
same,GI50,RXF 393,29 µM (inactive)
same,GI50,SF-295,> 100 µM (inactive)
same,GI50,SK-MEL-28,> 100 µM (inactive)
same,GI50,SK-MEL-2,62.1 µM (inactive)
same,GI50,SK-MEL-5,> 100 µM (inactive)
same,GI50,SK-OV-3,39.7 µM (inactive)
same,GI50,SN12C,> 100 µM (inactive)
same,GI50,SNB-19,> 100 µM (inactive)
same,GI50,SNB-75,28.2 µM (inactive)
same,GI50,SNB-78,77.8 µM (inactive)
same,GI50,SW-620,> 100 µM (inactive)
same,GI50,TK-10,97.5 µM (inactive)
same,GI50,UACC-257,> 100 µM (inactive)
same,GI50,UACC-62,> 100 µM (inactive)
same,GI50,UO-31,> 100 µM (inactive)
C/C(=N\N(c1ccccc1)c1ccccc1)c1c(O)cc(C)oc1=O,GI50,786-0,> 100 µM (inactive)
same,GI50,A498,> 100 µM (inactive)
same,GI50,A549,75 µM (inactive)
same,GI50,ACHN,> 100 µM (inactive)
same,GI50,CAKI-1,90.2 µM (inactive)
same,GI50,CCRF-CEM,89.7 µM (inactive)
same,GI50,DLD-1,76.2 µM (inactive)
same,GI50,EKVX,> 100 µM (inactive)
same,GI50,HCC 2998,> 100 µM (inactive)
same,GI50,HCT-116,45.1 µM (inactive)
same,GI50,HCT-15,71.3 µM
same,GI50,HL-60,> 10 µM (inactive)
same,GI50,HOP-18,> 100 µM (inactive)
same,GI50,HOP-62,> 100 µM (inactive)
same,GI50,HOP-92,46.3 µM (inactive)
same,GI50,HT-29,> 100 µM (inactive)
same,GI50,K562,62.7 µM (inactive)
same,GI50,KM-20L2,> 100 µM (inactive)
same,GI50,KM12,> 100 µM (inactive)
same,GI50,LOX IMVI,> 100 µM (inactive)
same,GI50,LXFL 529,78.5 µM (inactive)
same,GI50,M14,> 100 µM (inactive)
same,GI50,M19-MEL,81.7 µM (inactive)
same,GI50,MOLT-4,54.2 µM (inactive)
same,GI50,Malme-3M,> 100 µM (inactive)
same,GI50,NCI-H226,> 100 µM (inactive)
same,GI50,NCI-H23,40.1 µM (inactive)
same,GI50,NCI-H460,46.5 µM (inactive)
same,GI50,NCI-H522,> 100 µM (inactive)
same,GI50,OVCAR-4,45.1 µM (inactive)
same,GI50,OVCAR-8,> 100 µM (inactive)
same,GI50,SF-268,> 100 µM (inactive)
same,GI50,SF-295,> 100 µM (inactive)
same,GI50,SF-539,67.8 µM (inactive)
same,GI50,SK-MEL-28,> 100 µM (inactive)
same,GI50,SK-MEL-2,> 100 µM (inactive)
same,GI50,SK-OV-3,> 100 µM (inactive)
same,GI50,SN12C,> 100 µM (inactive)
same,GI50,SNB-19,> 100 µM (inactive)
same,GI50,SNB-75,> 100 µM (inactive)
same,GI50,SNB-78,> 100 µM (inactive)
same,GI50,SR,56.9 µM (inactive)
same,GI50,SW-620,> 100 µM (inactive)
same,GI50,TK-10,> 100 µM (inactive)
same,GI50,U-251,22.4 µM (inactive)
same,GI50,UACC-257,47.8 µM (inactive)
same,GI50,UACC-62,54 µM (inactive)
same,GI50,UO-31,25.7 µM (inactive)
